Measurements from PubChem BioAssay (NCI).
Where “and” joins values, the source holds several entries; their conditions need not be identical. Equal values may be shown once.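 Protocol summary: plate cells (96-well), add compound at 5 concentrations, incubate 48 h, interpolate endpoints linearly. Here, GI50 denotes the concentration required for 50% inhibition of growth. TGI marks complete inhibition of growth.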

Tests used:
Experiment in all cases: inhibition of tumour cell growth, NCI panel, 48 h
A498 renal = tested on: A498 renal
LOX IMVI melanoma = tested on: LOX IMVI melanoma
NCI-H23 lung = tested on: NCI-H23 lung
OVCAR-3 ovarian = tested on: OVCAR-3 ovarian
RXF 393 renal = tested on: RXF 393 renal
SK-MEL-2 melanoma = tested on: SK-MEL-2 melanoma
SNB-19 CNS = tested on: SNB-19 CNS
UACC-62 melanoma = tested on: UACC-62 melanoma
DU-145 prostate = tested on: DU-145 prostate
NCI/ADR-RES ovarian = tested on: NCI/ADR-RES ovarian

Structure (SMILES)	TGI (A498 renal) [µM]	TGI (LOX IMVI melanoma) [µM]	TGI (NCI-H23 lung)	TGI (OVCAR-3 ovarian)	TGI (RXF 393 renal) [µM]	TGI (SK-MEL-2 melanoma) [µM]	TGI (SNB-19 CNS) [µM]	TGI (UACC-62 melanoma)	GI50 (A498 renal) [µM]	GI50 (OVCAR-3 ovarian)	GI50 (SK-MEL-2 melanoma) [µM]	GI50 (SNB-19 CNS) [µM]	GI50 (UACC-62 melanoma)	GI50 (DU-145 prostate)	TGI (DU-145 prostate)	GI50 (LOX IMVI melanoma)	GI50 (NCI-H23 lung)	GI50 (NCI/ADR-RES ovarian)	TGI (NCI/ADR-RES ovarian) [µM]	GI50 (RXF 393 renal) [µM]
O=C1NC2(CCCC2)C2CCCCC12O (configuration not stated)	> 100	> 100	> 100 µM	> 100 µM	> 100	> 100	> 100	> 100 µM	–	–	–	–	–	–	–	–	–	–	–	–
COc1ccc2c(c1)C(=O)c1c-2c(N2CCN(C(=O)CCNCCNCCN)CC2)nc2ccccc12	33.7	–	–	61.2 µM	–	37	39.8	55.3 µM	16.9	16.8 µM	12.4	15	22.3 µM	–	–	–	–	–	–	–
COc1ccc2nc3c(cc2c1)C(=O)CC(c1ccccc1)C3 (configuration not stated)	1.18	> 100	> 100 µM	10.4 µM	–	> 100	> 100	> 100 µM	0.215	1.4 µM	0.771	2.94	0.601 µM	0.595 µM	> 58.1 µM	1.33 µM	5.4 µM	0.359 µM	> 100	–
C[C@]12CCc3nonc3C1CC[C@@H]1C2CC[C@@]2(C)C1CC[C@@H]2O (some centres not stated)	> 100	> 100	> 100 µM	> 100 µM	> 100	> 100	> 100	> 100 µM	–	–	–	–	–	–	–	–	–	–	–	–
CCOC(=O)c1c(-c2ccc(OC)c(O)c2)c(C#N)c(=S)n(C2OC(COC(C)=O)C(OC(C)=O)C(OC(C)=O)C2OC(C)=O)c1-c1ccccc1 (configuration not stated)	> 100	> 100	60.3 µM and > 100 µM	45.2 µM and > 100 µM	> 100	–	> 100	34.1 µM and > 100 µM	–	20.9 µM and > 100 µM	–	–	17.1 µM and > 100 µM	27.3 µM and > 100 µM	76.3 µM and > 100 µM	34.8 µM and > 100 µM	22.2 µM and > 100 µM	48.6 µM and > 100 µM	> 100	–
COc1ccc(-c2cc(=O)c3cc(C)c(C)c(C(=O)O)c3o2)cc1	> 100	–	> 100 µM	> 100 µM	> 100	> 100	> 100	30.7 µM	–	–	–	–	–	–	–	–	–	–	–	–
CN(C)CCN(C)C(=O)c1cccc2cccc(C(=O)O)c12	> 100	> 100	> 100 µM	> 100 µM	> 100	38.7	> 100	> 100 µM	–	–	–	–	–	–	–	–	–	–	–	–
COc1ccc([Se][Se]c2ccc(OC)cc2OC)c(OC)c1	53.5	–	15.3 µM	20 µM	6.27	20.8	21	4.14 µM	–	–	–	–	–	–	–	–	–	–	–	–
N#CC(C(=O)CCC(=O)Nc1cccc(C(F)(F)F)c1)c1ccccc1 (configuration not stated)	> 100	> 100	> 100 µM	> 100 µM	> 100	> 100	> 100	> 100 µM	–	–	–	–	–	–	–	–	–	–	–	–
COc1cc2c(c(OC)c1OC)-c1c(c3ccc([N+](=O)[O-])cc3c(=O)n1CCCBr)C2=O	> 100	> 100	> 100 µM	> 100 µM	> 100	> 100	> 100	90.1 µM	> 100	> 100 µM	> 100	57.4	23.8 µM	–	–	31.9 µM	68.9 µM	70.6 µM	> 100	24.4
